Results on 52 compounds are retold here after PubChem BioAssay AID493099 (Broad Institute, 2011).

Active and inactive are the calls of the source. No rule for the calls is given here.

A short description of assay [1]: PubChem AID 493099. The conditions noted are these: NIH-3T3 viability with fluconazole, Alamar Blue, 48 h.
Assay [2] relates to NIH-3T3 viability with fluconazole, Alamar Blue, 48 h. Kind of assay: PubChem AID 493099.

In the case of `COc1ccc2c(c1)c1nc3n(c(=O)c1n2CC(=O)N1CCC(Cc2ccccc2)CC1)CCS3`, the activity change, negative = toxicity in assay [1] (at 26 µM (top of the series)) was -12% (inactive).

`O=C(Cn1c2ccc(F)cc2c2nc3n(c(=O)c21)CCS3)N1CCCCCC1`: in assay [1] (at 26 µM (top of the series)), the activity change, negative = toxicity is -19.1% (inactive).

Regarding `CCOC(=O)c1nn(Cc2ccc(Cl)cc2)c2ccccc12`, in assay [1] (at 26 µM (top of the series)), the activity change, negative = toxicity is -28.4% (inactive).

As to `O=C(c1ccc(Cl)cc1)N1CCN(c2ncccc2C(F)(F)F)CC1`, the activity change, negative = toxicity in assay [1] (at 26 µM (top of the series)) is -21.5% (inactive).

As to `O=C(c1ccccc1Cl)N1CCN(c2ccccn2)CC1`, the activity change, negative = toxicity in assay [1] (at 26 µM (top of the series)) is -7.93% (inactive).

As for `O=C(Cn1c2ccccc2c2nc3n(c(=O)c21)CCCS3)c1ccc(F)cc1`, in assay [1] (at 26 µM (top of the series)), the activity change, negative = toxicity was -8.47% (inactive).

Regarding `N#Cc1ccc(N2CCN(C(=O)c3ccc(Cl)cc3)CC2)nc1`, in assay [1] (at 26 µM (top of the series)), the activity change, negative = toxicity is -15.6% (inactive).

In the case of `COC(=O)Cn1c(-c2ccccc2)nc2ccccc21`, the activity change, negative = toxicity in assay [1] (at 26 µM (top of the series)) is -4.41% (inactive).

For `CC1CCN(C(=O)Cn2c3ccccc3c3nc4n(c(=O)c32)CCCS4)CC1`, the activity change, negative = toxicity in assay [1] (at 26 µM (top of the series)) was -25.8% (inactive).

Turning to `COc1ccc(C(=O)N2CCN(c3ccccn3)CC2)cc1`, the activity change, negative = toxicity in assay [1] (at 26 µM (top of the series)) was -22.2% (inactive).

On to `Cc1cccc(N2CCN(C(=O)c3ccc(Cl)cc3)CC2)n1`, for which the activity change, negative = toxicity in assay [1] (at 26 µM (top of the series)) is -19.6% (inactive).

In the case of `COC(=O)Cn1nc(-c2ccccc2)c2cc(Cl)ccc21`, in assay [1] (at 26 µM (top of the series)), the activity change, negative = toxicity was -7.62% (inactive).

As for `COC(=O)Cn1nc(-c2ccc(Cl)cc2)c2ccccc21`, the activity change, negative = toxicity in assay [1] (at 26 µM (top of the series)) is -11% (inactive).

Regarding `CCCNC(=O)Cn1nc(-c2ccccc2)c2ccccc21`, the activity change, negative = toxicity in assay [1] (at 26 µM (top of the series)) was -5.82% (inactive).

Turning to `COC(=O)Cn1nc(C)c2ccccc21`, the activity change, negative = toxicity in assay [1] (at 26 µM (top of the series)) is -5.29% (inactive).

On to `Cc1ccc(C(=O)N2CCN(c3ccccn3)CC2)cc1`, for which the activity change, negative = toxicity in assay [1] (at 26 µM (top of the series)) was 5.98% (inactive).

Turning to `O=c1c2[nH]c3ccccc3c2nc2n1CCS2`, the activity change, negative = toxicity in assay [1] (at 26 µM (top of the series)) is -21.3% (inactive).

For `O=C(Cn1c2ccccc2c2nc3n(c(=O)c21)CCS3)NCCc1ccc(Cl)cc1`, the activity change, negative = toxicity in assay [1] (at 26 µM (top of the series)) is -7.62% (inactive).

As for `O=C(Cn1nc(C(=O)N2CCCCC2)c2ccccc21)N1CCOCC1`, the activity change, negative = toxicity in assay [1] (at 26 µM (top of the series)) was -2.32% (inactive).

The term AC50 denotes the concentration at which the activity in the assay is half-maximal. For the compound `CCN(CC)C(=O)Cn1c2ccccc2c2nc3n(c(=O)c21)CCS3`, the AC50 in assay [2] is > 26 µM (inactive). Moreover, in assay [1] (at 26 µM (top of the series)), the activity change, negative = toxicity is -27% (inactive).

Take `O=C(O)c1nn(Cc2ccc(Cl)cc2)c2ccccc12`: in assay [1] (at 26 µM (top of the series)), the activity change, negative = toxicity was -9.65% (inactive).

Consider `COCCC(=O)N1CCN(c2ccccn2)CC1`, for which, in assay [1] (at 26 µM (top of the series)), the activity change, negative = toxicity was -16% (inactive).

Take `CCCCC(=O)N1CCN(c2ccccn2)CC1`: the activity change, negative = toxicity in assay [1] (at 26 µM (top of the series)) was -7.03% (inactive).

On to `O=C(Cn1nc(-c2ccccc2)c2ccccc21)N1CCc2ccccc2C1`, for which the activity change, negative = toxicity in assay [1] (at 26 µM (top of the series)) is -10.2% (inactive).

Take `N#Cc1cccnc1N1CCN(C(=O)c2ccc(Cl)cc2)CC1`: the activity change, negative = toxicity in assay [1] (at 26 µM (top of the series)) is 6.33% (inactive).

For the compound `Cc1nn(S(C)(=O)=O)c2ccccc12`, the activity change, negative = toxicity in assay [1] (at 26 µM (top of the series)) was -23.9% (inactive).

Turning to `COc1ccc2c(c1)c1nc3n(c(=O)c1n2CC(=O)N1CCC(C)CC1)CCS3`, the activity change, negative = toxicity in assay [1] (at 2.6 µM (top of the series)) is 18.1% (inactive).

As for `CC(C)C(=O)N1CCN(c2ccccn2)CC1`, the activity change, negative = toxicity in assay [1] (at 26 µM (top of the series)) is 7.76% (inactive).

Take `c1ccc(-c2n[nH]c3ccccc23)cc1`: the activity change, negative = toxicity in assay [1] (at 26 µM (top of the series)) is -5.62% (inactive).

Consider `O=C(Cn1c2ccccc2c2nc3n(c(=O)c21)CCS3)N1CCCC1`, for which the AC50 in assay [2] was 19.7 µM. Also, the activity change, negative = toxicity in assay [1] (at 26 µM (top of the series)) was -17.5% (inactive).

For the compound `O=C(c1ccc(Cl)cc1)N1CCN(c2ccc(C(F)(F)F)cn2)CC1`, the activity change, negative = toxicity in assay [1] (at 26 µM (top of the series)) was -6.38% (inactive).

Consider `O=C(Cn1nc(-c2ccccc2)c2cc(Cl)ccc21)N1CCOCC1`, for which the AC50 in assay [2] was > 26 µM (inactive).

Consider `COc1ccc(NC(=O)Cn2c3ccccc3c3nc4n(c(=O)c32)CCS4)cc1`, for which the AC50 in assay [2] is 6.04 µM.

Regarding `N#Cc1ccc(C(=O)N2CCN(c3ccccn3)CC2)cc1`, in assay [1] (at 26 µM (top of the series)), the activity change, negative = toxicity was 4.67% (inactive).

Take `COC(=O)Cn1nc(-c2ccccc2)c2ccccc21`: the activity change, negative = toxicity in assay [1] (at 26 µM (top of the series)) was -16.9% (inactive).

For `CCCNC(=O)Cn1nc(-c2ccccc2)c2cc(Cl)ccc21`, the activity change, negative = toxicity in assay [1] (at 26 µM (top of the series)) was -7.48% (inactive).

With `O=C(c1ccc(Cl)cc1)N1CCN(c2nc3ccccc3s2)CC1`, the activity change, negative = toxicity in assay [1] (at 26 µM (top of the series)) is -24% (inactive).

As for `O=C(Cn1c2ccccc2c2ccncc21)N1CCCCC1`, the activity change, negative = toxicity in assay [1] (at 26 µM (top of the series)) was -31.2% (inactive).

On to `COC(=O)Cn1nc(-c2ccc(C)cc2)c2ccccc21`, for which, in assay [1] (at 26 µM (top of the series)), the activity change, negative = toxicity is 0.677% (inactive).

In the case of `CNC(=O)Cn1nc(-c2ccccc2)c2ccccc21`, the activity change, negative = toxicity in assay [1] (at 26 µM (top of the series)) is -11.1% (inactive).

As to `CC1CCN(C(=O)Cn2c3ccccc3c3nc4n(c(=O)c32)CCS4)CC1`, the activity change, negative = toxicity in assay [1] (at 26 µM (top of the series)) was -20.3% (inactive).

Regarding `COc1cccnc1N1CCN(C(=O)c2ccc(Cl)cc2)CC1`, in assay [1] (at 26 µM (top of the series)), the activity change, negative = toxicity is -12.3% (inactive).

Regarding `O=C(O)Cn1nc(-c2ccccc2)c2ccccc21`, in assay [1] (at 26 µM (top of the series)), the activity change, negative = toxicity was -27.1% (inactive).

As for `O=C(O)c1c2ccccc2nn1Cc1ccc(Cl)cc1`, the activity change, negative = toxicity in assay [1] (at 26 µM (top of the series)) is -7.54% (inactive).

With `O=c1c2[nH]c3ccc(F)cc3c2nc2n1CCS2`, the activity change, negative = toxicity in assay [1] (at 26 µM (top of the series)) was 7.11% (inactive).

With `CC1CCN(C(=O)Cn2c3ccc(F)cc3c3nc4n(c(=O)c32)CCCS4)CC1`, the activity change, negative = toxicity in assay [1] (at 26 µM (top of the series)) is -15.8% (inactive).

In the case of `Cc1ccnc(N2CCN(C(=O)c3ccc(Cl)cc3)CC2)c1`, the activity change, negative = toxicity in assay [1] (at 26 µM (top of the series)) was -11.8% (inactive).

For the compound `O=C(c1cccc(Cl)c1)N1CCN(c2ccccn2)CC1`, in assay [1] (at 26 µM (top of the series)), the activity change, negative = toxicity is -24.6% (inactive).

Consider `O=C(Cn1c2ccc(F)cc2c2nc3n(c(=O)c21)CCS3)N1CCCC1`, for which, in assay [1] (at 26 µM (top of the series)), the activity change, negative = toxicity is -34% (inactive).

As to `Cc1ccc(N2CCN(C(=O)c3ccc(Cl)cc3)CC2)nc1`, in assay [2], the AC50 is > 26 µM (inactive).

Consider `CCOC(=O)c1c2ccccc2nn1Cc1ccc(Cl)cc1`, for which the activity change, negative = toxicity in assay [1] (at 26 µM (top of the series)) is 3.93% (inactive).

`O=C(C1CCCCC1)N1CCN(c2ccccn2)CC1`: in assay [1] (at 26 µM (top of the series)), the activity change, negative = toxicity is -19.3% (inactive).
